Source: patent US6143715A, “Hepatitis C inhibitor peptide analogues” (priority 1998, dated 2000)
Where two headings read alike, the source gives them in different places. Starred links: 1 amine or outer side, 2 acyl side, 3 side chain; linkers in the order of their positions; H or OH if unused. Non-standard residues stand in square brackets, D forms with d. Residues, ends and D or L forms follow the SMILES beside them. ξ: configuration not given here. *: point of attachment. NH(1S-phenylethyl) = C[C@H](N*)c1ccccc1; Hyp = O=C(O)[C@@H]1C[C@@H](O)CN1; azaNva = CCCN(N[*:1])C(=O)[*:2]; AzaAla = CN(N[*:1])C(=O)[*:2]; X7 = CCCCCN(N[*:1])C(=O)[*:2]; X2 = CCCN(N*)C(=O)OCc1ccccc1; X5 = CCCN(N*)C(=O)CCc1ccccc1; X6 = CCCC(N*)C(=O)CCc1ccccc1; Nva = CCC[C@H](N)C(=O)O; X19 = CCCN(N*)C(C)=O; ξNva = CCCC(N)C(=O)O; ξAbu = CCC(N)C(=O)O; Bn = c1ccc(C*)cc1; CF3 = FC(F)(F)*

What was measured:
[1] = target: T1, human leukocyte elastase (Homo sapiens, UniProt P08246); assay: Specificity assay, human leukocyte elastase (pNA substrate); assay type: biochemical
T1 sequence (P08246 30-267): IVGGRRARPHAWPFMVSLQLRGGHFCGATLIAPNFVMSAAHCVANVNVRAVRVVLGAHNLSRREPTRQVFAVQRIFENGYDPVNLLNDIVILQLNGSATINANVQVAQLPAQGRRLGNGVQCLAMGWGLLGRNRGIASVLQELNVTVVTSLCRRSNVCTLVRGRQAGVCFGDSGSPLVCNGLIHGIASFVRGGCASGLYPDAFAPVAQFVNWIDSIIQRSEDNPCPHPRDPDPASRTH
Procedure: The specificity of the compounds was determined against a variety of serine proteases: human leukocyte elastase, porcine pancreatic elastase and bovine pancreatic α-chymotrypsin and one cysteine protease: human liver cathepsin B. In all cases a 96-well plate format protocol using a […] p-nitroanilide (pNA) substrate specific for each enzyme was used. Each assay included a 1 h enzyme-inhibitor pre-incubation at 30° C. followed by addition of substrate and hydrolysis to ≈30% conversion as measured on a UV Thermomax® microplate reader. Substrate concentrations were kept as low as possible compared to KM to reduce substrate competition. […] The final conditions for each assay were as follows:
(§1) 50 mM Tris-HCl pH 8, 0.5 M Na2 SO4, 50 mM NaCl, 0.1 mM EDTA, 3% DMSO, 0.01% Tween-20 with;
All other specificity assays were performed in a similar fashion.
(§2) The percentage of inhibition was calculated using the formula:
(§3) [1-(UVinh -UVblank)/(UVctl -UVblank))]×100

[2] = target: T2, HCV NS3 protease type 1b/NS4A cofactor peptide (Hepatitis C virus genotype 1b, UniProt P26663); assay: biochemical; parameters: species or system hepatitis C virus (HCV) genotype 1b
T2 construct: recombinant HCV NS3 protease (amino acid 1027 to 1206) was cloned; made in house; host or cells: E. coli BL21(DE3)pLysS
From the text: a) Cloning, expression and purification of the recombinant HCV NS3 protease type lb
Serum from an HCV-infected patient was obtained through an external collaboration (Bernard Willems MD, Hopital St-Luc, Montreal, Canada and Dr. Donald Murphy, Laboratoire de Sante Publique du Quebec, Ste-Anne de Bellevue, Canada). An engineered full-length cDNA template of the HCV genome was constructed from DNA fragments obtained by reverse transcription-PCR (RT-PCR) of serum RNA and using specific primers selected on the basis of homology between other genotype lb strains. […] A DNA fragment encoding the polyprotein precursor (NS3/NS4A/NS4B/NS5A/NS5B) was generated by PCR and introduced into eucaryotic expression vectors.
The NS3 protease expression in E. coli BL21(DE3)pLysS was induced by incubation with 1 mM IPTG for 3 h at 22° C. […] The cells were resuspended in lysis buffer (3.0 mL/g) consisting of 25 mM sodium phosphate, pH 7.5, 10% glycerol (v/v), 1 mM EDTA, 0.01% NP-40 and stored at -80° C. Cells were thawed and homogenized following the addition of 5 mM DTT. Magnesium chloride and DNase were then added to the homogenate at final concentrations of 20 mM and 20 μg/mL respectively. After a 25 min incubation at 4° C., the homogenate was sonicated and centrifuged at 15000× g for 30 min at 4° C. The pH of the supernatant was then adjusted to 6.5 using a 1M sodium phosphate solution.
Briefly, the supernatant from the bacterial extract was loaded on a SP HiTrap column (Pharmacia) previously equilibrated at a flow rate of 2 mL/min in buffer A (50 mM sodium phosphate, pH 6.5, 10% glycerol, 1 mM EDTA, 5 mM DTT, 0.01% NP-40). The column was then washed with buffer A containing 0.15 M NaCl and the protease eluted by applying 10 column volumes of a linear 0.15 to 0.3 M NaCl gradient. NS3 protease-containing fractions were pooled and diluted to a final NaCl concentration of 0.1 M. The enzyme was further purified on a HiTrap Heparin column (Pharmacia) equilibrated in buffer B (25 mM sodium phosphate, pH 7.5, 10% glycerol, 5 mM DTT, 0.01% NP-40). The sample was loaded at a flow rate of 3 mL/min. The column was then washed with buffer B containing 0.15 M NaCl at a flow rate of 1.5 mL/min. Two step washes were performed in the presence of buffer B containing 0.3 or 1M NaCl. […] Finally, the NS3 protease-containing fractions were applied on a Superdex 75 HiLoad 16/60 column (Pharmacia) equilibrated in buffer B containing 0.3 M NaCl.
The enzyme was stored at -80° C. and was thawed on ice and diluted just prior to use.
Recombinant HCV NS3 Protease/NS4A Cofactor Peptide Radiometric Assay
The enzyme was stored at -80° C., thawed on ice and diluted just prior to use in the assay buffer containing the NS4A cofactor peptide.
The substrate used for the NS3 protease/[…] cofactor peptide radiometric assay, DDIVPC-SMSYTW, is cleaved between the cysteine and the serine residues by the enzyme. The sequence DDIVPC-SMSYTW corresponds to the NS5A/NS5B natural cleavage site in which the cysteine residue in […] has been substituted for a proline. […] (molar ratio enzyme: cofactor 1:100) in the absence or presence of inhibitors. The separation of substrate from products is performed by adding avidin-coated agarose beads to the assay mixture followed by filtration.
Assay buffer: 50 mM Tris HCl, pH 7.5, 30% (w/v) glycerol, 1 mg/mL BSA, 1 mM TCEP (TCEP added just prior to use from a 1 M stock solution in water)
Substrate: […], […] final concentration (from a 2 mM stock solution in DMSO stored at -20° C. to avoid oxidation).

[3] = target: porcine pancreatic elastase (Sus scrofa, UniProt P00772); assay: Specificity assay, porcine pancreatic elastase (pNA substrate); assay type: biochemical
Procedure: The specificity of the compounds was determined against a variety of serine proteases: human leukocyte elastase, porcine pancreatic elastase and bovine pancreatic α-chymotrypsin and one cysteine protease: human liver cathepsin B. In all cases a 96-well plate format protocol using a calorimetric p-nitroanilide (pNA) substrate specific for each enzyme was used. Each assay included a 1 h enzyme-inhibitor pre-incubation at 30° C. followed by addition of substrate and hydrolysis to ≈30% conversion as measured on a UV Thermomax® microplate reader. Substrate concentrations were kept as low as possible compared to KM to reduce substrate competition. […] The final conditions for each assay were as follows:
A representative example is summarized below for porcine pancreatic elastase:
In a polystyrene flat-bottom 96-well plate were added using a Biomek liquid handler (Beckman):
40 μL of assay buffer (50 mM Tris-HCl pH 8, 50 mM NaCl, 0.1 mM EDTA);
20 μL of enzyme solution (50 mM Tris-HCl pH 8, 50 mM NaCl, 0.1 mM EDTA, 0.02% Tween-20, 40 nM porcine pancreatic elastase); and

[4] = target: bovine pancreatic α-chymotrypsin (Bos taurus, UniProt P00766, DEL14-15/DEL147-148); assay: Specificity assay, bovine pancreatic α-chymotrypsin (pNA substrate); assay type: biochemical; details: 1 h enzyme-inhibitor pre-incubation at 30° C., Succ-AAPF-pNA
Procedure: The final conditions for each assay were as follows:
as §1, §2, §3

[5] = target: human liver cathepsin B (Homo sapiens, UniProt P07858); assay: biochemical
Procedure: The specificity of the compounds was determined against a variety of serine proteases: human leukocyte elastase, porcine pancreatic elastase and bovine pancreatic α-chymotrypsin and one cysteine protease: human liver cathepsin B. In all cases a 96-well plate format protocol using a calorimetric p-nitroanilide (pNA) substrate specific for each enzyme was used. Each assay included a 1 h enzyme-inhibitor pre-incubation at 30° C. followed by addition of substrate and hydrolysis to ≈30% conversion as measured on a UV Thermomax® microplate reader. Substrate concentrations were kept as low as possible compared to KM to reduce substrate competition.

[6] = test system: HCV; details: as described in WO 97/06804; cited from earlier work
[7] = target: NS3 protease (Hepatitis C virus genotype 1b, UniProt P26663); assay: Inhibition of NS3 protease by N-terminal cleavage product; assay type: biochemical; details: N-terminal cleavage product of an analogue of a natural substrate
[8] = 1 h enzyme-inhibitor pre-incubation at 30° C., Succ-AAV-pNA
[9] = 1 h enzyme-inhibitor pre-incubation at 30° C., Succ-AAA-pNA

Chain of porcine pancreatic elastase (P00772 27-266): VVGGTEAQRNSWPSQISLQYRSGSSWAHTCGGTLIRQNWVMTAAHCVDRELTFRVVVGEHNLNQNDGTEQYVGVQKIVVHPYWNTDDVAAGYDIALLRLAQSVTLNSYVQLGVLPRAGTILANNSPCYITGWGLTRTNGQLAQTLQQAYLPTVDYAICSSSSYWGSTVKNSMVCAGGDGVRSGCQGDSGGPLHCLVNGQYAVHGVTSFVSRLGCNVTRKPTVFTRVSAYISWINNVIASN
T2 sequence (P26663 1027-1206, other chains not shown): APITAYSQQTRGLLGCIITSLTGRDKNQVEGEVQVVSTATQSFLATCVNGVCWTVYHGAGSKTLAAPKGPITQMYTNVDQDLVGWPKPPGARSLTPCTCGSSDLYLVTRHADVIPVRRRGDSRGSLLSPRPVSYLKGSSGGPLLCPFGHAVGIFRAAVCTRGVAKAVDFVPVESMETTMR
Chain of NS3 protease (P26663 1027-1206): as the sequence (P26663 1027-1206, other chains not shown) above

Compound	IC50 [1, 8]	IC50 [2]	also measured
CC[C@H](C)[C@H](NC(=O)[C@@H](CCC(=O)O)NC(=O)[C@H](CC(=O)O)NC(C)=O)C(=O)N[C@H](C(=O)N1C[C@H](OCc2ccccc2)C[C@H]1C(=O)NN(C)C(=O)N[C@@H](C)c1ccccc1)C(C)C [Compound 221] (Ac-D[dE]IV[Hyp](Bn)[AzaAla]-{NH(1S-phenylethyl)})	168 µM	0.52 µM	–
CCCCCN(NC(=O)[C@@H]1C[C@@H](OCc2ccccc2)CN1C(=O)[C@@H](NC(=O)[C@@H](NC(=O)[C@@H](CCC(=O)O)NC(=O)[C@H](CC(=O)O)NC(C)=O)[C@@H](C)CC)C(C)C)C(=O)N[C@@H](C)c1ccccc1 [Compound 219] (Ac-D[dE]IV[Hyp](Bn)[X7]-{NH(1S-phenylethyl)})	151 µM	0.43 µM	–
CCCC(NC(=O)[C@@H]1C[C@@H](OCc2ccccc2)CN1C(=O)[C@@H](NC(=O)[C@@H](NC(=O)[C@@H](CCC(=O)O)NC(=O)[C@H](CC(=O)O)NC(C)=O)[C@@H](C)CC)C(C)C)P(=O)(Oc1ccccc1)Oc1ccccc1 (single isomer, unassigned) [Compound 301]	–	–	IC50 [3]: < 0.6 µM; IC50 [4]: 3 µM; IC50 [1]: < 0.6 µM; IC50 [5]: > 300 µM; IC50 ([2]; IC50: concentration required to obtain 50% inhibition in the NS3 protease/NS4A cofactor peptide radiometric assay, enzyme:cofactor 1:100, 40 min at 23° C.): 0.029 µM
CCCC(NC(=O)[C@@H]1C[C@@H](OCc2ccccc2)CN1C(=O)[C@@H](NC(=O)[C@@H](NC(=O)[C@@H](CCC(=O)O)NC(=O)[C@H](CC(=O)O)NC(C)=O)[C@@H](C)CC)C(C)C)C(=O)CCc1ccccc1 (stereo partly drawn) [Compound 106] (Ac-D[dE]IV[Hyp](Bn)-X6)	–	5.4 µM	IC50 [1]: 16 µM
CCCC(C=O)NC(=O)[C@@H]1C[C@@H](OCc2ccccc2)CN1C(=O)[C@@H](NC(=O)[C@@H](NC(=O)[C@@H](CCC(=O)O)NC(=O)[C@H](CC(=O)O)NC(C)=O)[C@@H](C)CC)C(C)C (stereo partly drawn) [Compound 104] (Ac-D[dE]IV[Hyp](Bn)[ξNva]-aldehyde)	7 µM	0.14 µM	IC50 [3, 9]: 8 µM; IC50 [4]: 8 µM
Nc1ccn([C@@H]2CS[C@H](CO)O2)c(=O)n1 (single isomer, unassigned) [3TC, (-) enantiomer of the nucleoside analogue cytosine-1,3-oxathiolane]	–	–	active against HCV [6]: active against HCV
CCCN(NC(=O)[C@@H]1C[C@@H](OCc2ccccc2)CN1C(=O)[C@@H](NC(=O)[C@@H](NC(=O)[C@@H](CCC(=O)O)NC(=O)[C@H](CC(=O)O)NC(C)=O)[C@@H](C)CC)C(C)C)C(=O)CCc1ccccc1 [Compound 202] (Ac-D[dE]IV[Hyp](Bn)-X5)	5.5 µM	0.63 µM	–
CCC[C@H](NC(=O)[C@@H]1C[C@@H](OCc2ccccc2)CN1C(=O)[C@@H](NC(=O)[C@@H](NC(=O)[C@@H](CCC(=O)O)NC(=O)[C@H](CC(=O)O)NC(C)=O)[C@@H](C)CC)C(C)C)C(=O)N[C@@H](C)c1ccccc1 [Compound 108] (Ac-D[dE]IV[Hyp](Bn)[Nva]-{NH(1S-phenylethyl)})	3 µM	0.71 µM	IC50 [3, 9]: > 300 µM; IC50 [4]: > 300 µM
CCC(NC(=O)[C@@H]1C[C@@H](OCc2ccccc2)CN1C(=O)[C@@H](NC(=O)[C@@H](NC(=O)[C@@H](CCC(=O)O)NC(=O)[C@H](CC(=O)O)NC(C)=O)[C@@H](C)CC)C(C)C)C(=O)C(F)(F)F (stereo partly drawn) [Compound 101] (Ac-D[dE]IV[Hyp](Bn)[ξAbu]-CF3)	< 1.2 µM	9.4 µM	–
CCCN(NC(=O)[C@@H]1C[C@@H](OCc2ccccc2)CN1C(=O)[C@@H](NC(=O)[C@@H](NC(C)=O)C1CCCCC1)C(C)C)C(=O)N[C@@H](C)c1ccccc1 [Compound 215]	5 µM	45 µM	–
CCCN(NC(=O)[C@@H]1C[C@@H](OCc2ccccc2)CN1C(=O)[C@@H](NC(=O)[C@@H](NC(=O)[C@@H](CCC(=O)O)NC(=O)[C@H](CC(=O)O)NC(C)=O)[C@@H](C)CC)C(C)C)C(=O)OCc1ccccc1 [Compound 206] (Ac-D[dE]IV[Hyp](Bn)-X2)	< 0.6 µM	0.79 µM	IC50 [3, 9]: < 0.6 µM
CCCC(NC(=O)[C@@H]1C[C@@H](OCc2ccccc2)CN1C(=O)[C@@H](NC(=O)[C@@H](NC(C)=O)C1CCCCC1)C(C)C)C(=O)C(=O)NCc1ccccc1 (stereo partly drawn) [Compound 109]	2 µM	23 µM	–
Ac-DDIVPC-OH [Ac-D-D-I-V-P-C-OH]	–	–	inhibitory to the NS3 protease [7]: inhibitory
CCCN(NC(=O)[C@@H]1C[C@@H](OCc2ccccc2)CN1C(=O)[C@@H](NC(=O)[C@@H](NC(=O)[C@@H](CCC(=O)O)NC(=O)[C@H](CC(=O)O)NC(C)=O)[C@@H](C)CC)C(C)C)C(=O)NCC(=O)OCC [Compound 201] (Ac-D[dE]IV[Hyp](Bn)[azaNva]G-OEt)	27.4 µM	3.9 µM	IC50 [3, 9]: 168 µM
CCCN(NC(=O)[C@@H]1C[C@@H](OCc2ccccc2)CN1C(=O)[C@@H](NC(=O)[C@@H](NC(=O)[C@@H](CCC(=O)O)NC(=O)[C@H](CC(=O)O)NC(C)=O)[C@@H](C)CC)C(C)C)C(C)=O [Compound 208] (Ac-D[dE]IV[Hyp](Bn)-X19)	–	14.5 µM	–
